Test results published in US11267800B2, “Cyclohexyl acid triazole azines as LPA antagonists” (BRISTOL-MYERS SQUIBB COMPANY, priority 2017, dated 2022).

These compounds were tested against T1, human LPA1 (Homo sapiens, UniProt Q92633) (assay: LPA1 functional antagonist assay (calcium flux)). Conditions: CHO cells overexpressing human LPA1; inhibition of calcium flux induced by 10 nM LPA; read-out: hLPA1 IC50.
T1 construct: expressed in transfected cells; host or cells: Chinese hamster ovary (CHO) cells
T1 sequence (Q92633 whole entry): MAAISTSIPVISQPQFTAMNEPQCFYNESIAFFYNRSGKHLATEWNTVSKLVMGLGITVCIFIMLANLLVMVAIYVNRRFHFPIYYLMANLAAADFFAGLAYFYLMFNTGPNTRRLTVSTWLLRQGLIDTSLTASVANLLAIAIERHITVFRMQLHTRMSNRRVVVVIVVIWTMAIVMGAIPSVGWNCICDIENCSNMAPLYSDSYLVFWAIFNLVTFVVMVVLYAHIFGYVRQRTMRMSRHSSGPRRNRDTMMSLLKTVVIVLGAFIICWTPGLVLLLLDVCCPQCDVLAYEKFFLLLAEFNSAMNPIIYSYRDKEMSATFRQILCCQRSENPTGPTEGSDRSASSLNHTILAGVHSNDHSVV
Type: cell-based
Outline: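 IC50 values come from 4-parameter logistic fits and mark 50% block of the calcium flux evoked by 10 nM LPA. Human LPA1-overexpressing CHO cells were calcium-dye loaded at 37 °C, then given test compound (0.08 nM–5 μM, 0.5% DMSO, HEPES-buffered HBSS with 0.1% fatty-acid-free BSA) for 20 min at room temperature before agonist.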

| IC50 [nM] | SMILES |
| --- | --- |
| 62 | CCCCc1nc(C)nc(NCc2c(-c3ccc(O[C@H]4CCC[C@H](C(=O)O)C4)c(C)n3)nnn2C)n1 [Example 209, (1S,3S)-3-((6-(5-(((4-Butyl-6-methyl-1,3,5-triazin-2-yl)amino)methyl)-1-methyl-1H-1,2,3-triazol-4-yl)-2-methylpyridin-3-yl)oxy)cyclohexane-1-carboxylic acid] |
| 102 | Cc1nc(-c2nnn(C)c2CNc2ncnc(OC3CC3)n2)ccc1O[C@H]1CCC[C@H](C(=O)O)C1 [Example 210, (1S,3S)-3-((6-(5-(((4-cyclopropoxy-1,3,5-triazin-2-yl)amino)methyl)-1-methyl-1H-1,2,3-triazol-4-yl)-2-methylpyridin-3-yl)oxy)cyclohexane-1-carboxylic acid] |
| 93 | CCCc1cnnc(NCc2c(-c3ccc(O[C@H]4CCC[C@H](C(=O)O)C4)c(C)n3)nnn2C)c1 [Example 212, (1S,3S)-3-((2-Methyl-6-(1-methyl-5-(((5-propylpyridazin-3-yl)amino)methyl)-1H-1,2,3-triazol-4-yl)pyridin-3-yl)oxy)cyclohexane-1-carboxylic acid] |
| 1260 | CCCc1ncnc(NCCc2c(-c3ccc(O[C@H]4CCC[C@H](C(=O)O)C4)c(C)n3)nnn2C)n1 [Example 213, (1S,3S)-3-((2-Methyl-6-(1-methyl-5-(2-((4-propyl-1,3,5-triazin-2-yl)amino)ethyl)-1H-1,2,3-triazol-4-yl)pyridin-3-yl)oxy)cyclohexane-1-carboxylic acid] |
| 297 | Cc1nc(-c2nnn(C)c2CNc2cc(-c3ccccc3)cnn2)ccc1O[C@H]1CCC[C@H](C(=O)O)C1 [Example 214, (1S,3S)-3-((2-Methyl-6-(1-methyl-5-(((5-phenylpyridazin-3-yl)amino)methyl)-1H-1,2,3-triazol-4-yl)pyridin-3-yl)oxy)cyclohexane-1-carboxylic acid] |
| 278 | Cc1nc(-c2nnn(C)c2CNc2cc(C3CC3)cnn2)ccc1O[C@H]1CCC[C@H](C(=O)O)C1 [Example 215, (1S,3S)-3-((6-(5-(((5-Cyclopropyl-pyridazin-3-yl)amino)methyl)-1-methyl-1H-1,2,3-triazol-4-yl)-2-methylpyridin-3-yl)oxy)cyclohexane-1-carboxylic acid] |
| 379 | Cc1nc(-c2nnn(C)c2CNc2nnc(Cl)cc2C2CC2)ccc1O[C@H]1CCC[C@H](C(=O)O)C1 [Example 216, (1S,3S)-3-((6-(5-(((6-Chloro-4-cyclopropylpyridazin-3-yl)amino)methyl)-1-methyl-1H-1,2,3-triazol-4-yl)-2-methylpyridin-3-yl)oxy) cyclohexane-1-carboxylic acid] |
| 97 | Cc1nc(-c2nnn(C)c2CNc2cc(C(C)C)cnn2)ccc1O[C@H]1CCC[C@H](C(=O)O)C1 [Example 217, (1S,3S)-3-((6-(5-(((5-Isopropyl-pyridazin-3-yl)amino)methyl)-1-methyl-1H-1,2,3-triazol-4-yl)-2-methylpyridin-3-yl)oxy)cyclohexane-1-carboxylic acid] |
| 213 | Cc1nc(-c2nnn(C)c2CNc2nnccc2OC2CC2)ccc1O[C@H]1CCC[C@H](C(=O)O)C1 [Example 218, (1S,3S)-3-((6-(5-(((4-Cyclopropoxy-pyridazin-3-yl)amino)methyl)-1-methyl-1H-1,2,3-triazol-4-yl)-2-methylpyridin-3-yl)oxy)cyclohexane-1-carboxylic acid] |
| 138 | Cc1nc(-c2nnn(C)c2CNc2cc(OC3CC3)cnn2)ccc1O[C@H]1CCC[C@H](C(=O)O)C1 [Example 219, (1S,3S)-3-((6-(5-(((5-Cyclopropoxy-pyridazin-3-yl)amino)methyl)-1-methyl-1H-1,2,3-triazol-4-yl)-2-methylpyridin-3-yl)oxy)cyclohexane-1-carboxylic acid] |
| 30 | Cc1nc(-c2nnn(C)c2CNc2cncc(-c3ccccc3)n2)ccc1O[C@H]1CCC[C@H](C(=O)O)C1 [Example 220, (1S,3S)-3-((2-Methyl-6-(1-methyl-5-(((6-phenylpyrazin-2-yl)amino)methyl)-1H-1,2,3-triazol-4-yl)pyridin-3-yl)oxy)cyclohexane-1-carboxylic acid] |
| 63 | CCCc1ncnc(NCc2c(-c3ccc(O[C@H]4CCC[C@H](C(=O)O)C4)cn3)nnn2C)n1 [Example 221, (1S,3S)-3-((6-(1-methyl-5-(((4-propyl-1,3,5-triazin-2-yl)amino)methyl)-1H-1,2,3-triazol-4-yl)pyridin-3-yl)oxy) cyclohexane-1-carboxylic acid] |
| 68 | CCCCc1ncnc(NCc2c(-c3ccc(O[C@H]4CCC[C@H](C(=O)O)C4)cn3)nnn2C)n1 [Example 222, (1S,3S)-3-((6-(5-(((4-butyl-1,3,5-triazin-2-yl)amino)methyl)-1-methyl-1H-1,2,3-triazol-4-yl)pyridin-3-yl)oxy)cyclohexane-1-carboxylic acid] |
| 211 | Cn1nnc(-c2ccc(O[C@H]3CCC[C@H](C(=O)O)C3)cn2)c1CNc1ncnc(C2CC2)n1 [Example 223, (1S,3S)-3-((6-(5-(((4-cyclopropyl-1,3,5-triazin-2-yl)amino)methyl)-1-methyl-1H-1,2,3-triazol-4-yl)pyridin-3-yl)oxy)cyclohexane-1-carboxylic acid] |
| 813 | CCc1ncnc(NCc2c(-c3ccc(O[C@H]4CCC[C@H](C(=O)O)C4)cn3)nnn2C)n1 [Example 224, (1S,3S)-3-((6-(5-(((4-ethyl-1,3,5-triazin-2-yl)amino)methyl)-1-methyl-1H-1,2,3-triazol-4-yl)pyridin-3-yl)oxy) cyclohexane-1-carboxylic acid] |
| 789 | CCc1nc(CC)nc(NCc2c(-c3ccc(O[C@H]4CCC[C@H](C(=O)O)C4)cn3)nnn2C)n1 [Example 225, (1S,3S)-3-((6-(5-(((4,6-diethyl-1,3,5-triazin-2-yl)amino)methyl)-1-methyl-1H-1,2,3-triazol-4-yl)pyridin-3-yl)oxy)cyclohexane-1-carboxylic acid] |
| 19 | Cc1nc(-c2nnn(C)c2Nc2cccc(Cc3ccccc3)n2)ccc1O[C@H]1CCC[C@H](C(=O)O)C1 [Example 226, (1S,3S)-3-((6-(5-((6-benzylpyridin-2-yl)amino)-1-methyl-1H-1,2,3-triazol-4-yl)-2-methylpyridin-3-yl)oxy)cyclohexane-1-carboxylicacid] |
| 215 | Cc1nc(-c2nnn(C)c2Nc2nccc(OC3CC3)n2)ccc1O[C@H]1CCC[C@H](C(=O)O)C1 [Example 227, (1S,3S)-3-((6-(5-((4-cyclopropoxypyrimidin-2-yl)amino)-1-methyl-1H-1,2,3-triazol-4-yl)-2-methylpyridin-3-yl)oxy)cyclohexane-1-carboxylic acid] |
| 215 | Cc1nc(-c2nnn(C)c2Nc2ccnc(OC3CC3)n2)ccc1O[C@H]1CCC[C@H](C(=O)O)C1 [Example 228, (1S,3S)-3-((6-(5-((2-cyclopropoxypyrimidin-4-yl)amino)-1-methyl-1H-1,2,3-triazol-4-yl)-2-methylpyridin-3-yl)oxy)cyclohexane-1-carboxylic acid] |

| SMILES | IC50 [nM] |
| --- | --- |
| Cc1nc(-c2nnn(C)c2CNc2ncnc(OC3CCC3)n2)ccc1O[C@H]1CCC[C@H](C(=O)O)C1 [Example 211, (1S,3S)-3-((6-(5-(((4-cyclobutoxy-1,3,5-triazin-2-yl)amino)methyl)-1-methyl-1H-1,2,3-triazol-4-yl)-2-methylpyridin-3-yl)oxy)cyclohexane-1-carboxylic acid] | 103 |
